“Also recorded” adds a separate entry of the source. Read-outs that look alike come from different tables or passages of the source.
Legend:
[1] = test system: kynureninase; conditions: cited from earlier work
[2] = test system: kynureninase; conditions: Takeuchi et al. (1980); cited from earlier work
[3] = target: T1, Kynureninase (Pseudomonas fluorescens, UniProt P83788); assay: Reactivity of dihydrokynurenine and L-kynurenine with bacterial kynureninase; type: biochemical; conditions: pH 8.0, 25°, o-aminobenzaldehyde formation at 360 nm
T1 construct: Bacterial kynureninase was prepared from cells of Pseudomonas fluorescens; endogenous in cells; partially purified by DEAE-cellulose and ammonium sulfate
T1 sequence (P83788 1-416): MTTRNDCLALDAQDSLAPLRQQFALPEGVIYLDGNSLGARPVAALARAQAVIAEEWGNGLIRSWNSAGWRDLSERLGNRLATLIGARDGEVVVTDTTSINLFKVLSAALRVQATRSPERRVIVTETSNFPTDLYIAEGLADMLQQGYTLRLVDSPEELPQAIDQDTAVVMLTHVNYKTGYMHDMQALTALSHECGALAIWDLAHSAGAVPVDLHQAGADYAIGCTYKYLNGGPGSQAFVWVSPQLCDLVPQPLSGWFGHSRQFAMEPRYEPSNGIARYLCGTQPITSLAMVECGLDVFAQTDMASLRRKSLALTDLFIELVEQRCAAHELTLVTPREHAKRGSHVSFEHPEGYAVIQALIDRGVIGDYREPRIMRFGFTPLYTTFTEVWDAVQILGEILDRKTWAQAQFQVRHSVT
Description: (§1) Bacterial kynureninase was prepared from cells of Pseudomonas fluorescens (ATCC 11250, for example) essentially as described by .Hayaishi and Stanier (1952) J. Biol. Chem. 195:735-740. Cells were grown on a minimal medium containing 0.1% L-tryptophan as the sole carbon and nitrogen source.
From 100 1 of medium, grown for 18 h at 30° C. […] The cells were suspended in 1 of 0.01M potassiumphosphate, pH 7.0, and disrupted by 2 passages through a Manton-Gaulin homogenizer. After centrifugation of the cell extract for 1 h at 10000 g, the enzyme was partially purified by ion-exchange chromatography on DEAE-cellulose and ammonium sulfate precipitation.
The reactivity of the two dihydrokynurenines with kynureninase in 0.1M potassium phosphate buffer, pH 8.0, at 25° was examined. Reaction was followed by the appearance of o-aminobenzaldehyde, as determined spectrophotometrically by the increase in absorbance at 360 nm (See Tanizawa and Soda (1979) Biochem. (Tokyo) 86:1199-1209, which is incorporated by reference herein).

[4] = target: T2, rat liver kynureninase (Rattus norvegicus, UniProt P70712); assay: Inhibition of rat liver kynureninase (cysteine conjugate β-lyase activity with S-(2-benzothiazolyl)cysteine); type: biochemical; conditions: S-(2-benzothiazolyl)cysteine as substrate
T2 construct: host or cells: rat liver
T2 sequence (P70712 1-464): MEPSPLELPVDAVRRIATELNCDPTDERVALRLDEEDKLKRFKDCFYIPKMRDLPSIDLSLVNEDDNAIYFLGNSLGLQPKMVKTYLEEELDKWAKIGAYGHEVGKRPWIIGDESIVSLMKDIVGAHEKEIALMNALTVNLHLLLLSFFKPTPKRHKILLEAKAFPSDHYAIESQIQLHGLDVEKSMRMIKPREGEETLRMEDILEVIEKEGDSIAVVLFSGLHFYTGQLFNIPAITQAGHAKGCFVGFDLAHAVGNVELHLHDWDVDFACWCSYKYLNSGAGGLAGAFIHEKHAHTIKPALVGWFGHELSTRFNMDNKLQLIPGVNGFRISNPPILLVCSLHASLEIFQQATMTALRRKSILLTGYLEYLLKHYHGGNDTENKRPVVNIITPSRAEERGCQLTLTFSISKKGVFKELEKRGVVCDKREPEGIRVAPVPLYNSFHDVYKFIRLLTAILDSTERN
Description: Inhibition of mammalian kynureninase can be measured using several different assays for enzyme activity. Rat liver kynureninase is obtained from homogenization of rat liver, followed by precipitation with (NH4)2 SO4, as described by Stevens, J. L., J. Biol. Chem. (1985) 260:7945-7950, which is incorporated by reference herein. The activity of rat liver kynureninase was assessed by measurement of the cysteine conjugate β-lyase activity, as described by Stevens (supra), with S-(2-benzothiazolyl)cysteine, a nonphysiological chromophoric substrate. Inhibition of kynureninase by the dihydrokynurenine diastereomers was assessed with respect to reaction with that substrate.

[5] = target: T1, Kynureninase; assay: Inhibition of bacterial kynureninase by dihydrokynurenine; type: biochemical; conditions: for inhibition of reaction with L-kynurenine (in words): bacterial kynureninase
Description: As an extension of these mechanistic studies, the reactivities of dihydrokynurenine diastereomers were examined. […] This increased affinity of (αS,γS)-dihydrokynurenine is characteristic of mechanism-based, or "transition-state analogue" inhibitors.
as §1
From 100 1 of medium, grown for 18 h at 30° C. 230 g of wet cell paste was obtained. The cells were suspended in 1 of 0.01M potassiumphosphate, pH 7.0, and disrupted by 2 passages through a Manton-Gaulin homogenizer. After centrifugation of the cell extract for 1 h at 10000 g, the enzyme was partially purified by ion-exchange chromatography on DEAE-cellulose and ammonium sulfate precipitation.
Inhibition of kynureninase by dihydrokynurenine was measured by including the potential inhibitor in the enzyme assay mixture (see Example 1 and Tanzawa and Soda (1979) supra) and determining the apparent Km for L-kynurenine (the preferred substrate of bacterial kynurenine) in the absence and presence of the potential inhibitor. Ki values were then calculated using the standard equation: […]
Inhibition of kynureninase by the (αS,γR)- and (αS,γS)-diastereomers of dihydrokynurenine was examined and Ki 's were determined. […] The Ki value for the […] was lower than for the (αS,γR)-diastereomer.

[6] = test system: cystsine lyase; conditions: cited from earlier work
[7] = target: T2, rat liver kynureninase; conditions: cited from earlier work
[8] = test system: cystsine conjugate β-lyase; conditions: cited from earlier work
[9] = test system: bacterial kynureninase; conditions: Tanizawa and Soda (1979); cited from earlier work
[10] = substrate: Nc1ccccc1C(=O)C[C@H](N)C(=O)O; assay: Reactivity of dihydrokynurenine and L-kynurenine with bacterial kynureninase; type: biochemical, Pseudomonas fluorescens; conditions: other: L-kynurenine, present work, 30.0 °C

## NC(C(=O)O)C(F)(F)C(=O)c1ccccc1 (stereo not drawn) [2,2-difluoro-α-benzoyl alanine, α-amino-β,β-difluoro-γ-oxobenzene butanoic acid]
[1]
  inhibition of kynureninase (in words): competitive inhibitor of kynureninase

## Nc1c(O)cccc1C(=O)O [3-hydroxyanthranilate, 3-hydroxyanthranilic acid]
[2]
  inhibition of kynureninase (in words): inhibit the enzyme

## Nc1ccccc1[C@@H](O)C[C@H](N)C(=O)O [(αS,γS)-dihydrokynurenine, (αS,γS)-α,2-diamino-γ-hydroxybenzenebutanoic acid]
[3]
  reactivity with kynureninase (in words): not a substrate for the kynureninase
[3]; listed as (αS,γS) diastereomer
  reactivity with kynureninase (in words): unreactive
[3]; listed as (αS,γS)-diastereomer
  reactivity with kynureninase (in words): No significant reaction
[4]; listed as (αS,γS) diastereomer
  inhibition of rat liver kynureninase (in words): stronger competitive inhibitor
[4]; listed as (αS,δS)
  inhibition of rat liver kynureninase (in words): inhibit the reaction of rat liver kynureninase
[4]; rat liver kynureninase
  Ki: ~690 µM
[5]
  binding relative to L-kynurenine (in words): binds about more tightly than does L-kynurenine
  inhibition of reaction with L-kynurenine (in words): competitive inhibitor of the enzyme
[5]; listed as (αS,γS)-diastereomer
  inhibition of reaction with L-kynurenine (in words): strongly inhibited; also recorded: competitive inhibitors
[5]; compared between dihydrokynurenine diastereomers
  Ki value (comparison in words): lower

## NO [H2 NOH]
[6]
  inhibition of cystsine lyase (in words): significantly inhibited

## N[C@@H](CSc1nc2ccccc2s1)C(=O)O [S-2-(benzothiazolyl)-L-cysteine]
[7]
  cleavage by rat liver kynureninase (in words): cleavage of S-2-(benzothiazolyl)-L-cysteine to give 2-mercaptobenzothiazole, pyruvate and ammonia

## N[C@@H](CSCc1ccccc1)C(=O)O [S-benzyl-L-cysteine]
[8]
  β-lyase-mediated metabolism (in words): cleaved to give pyruvate

## NOCC(=O)O [aminooxyacetic acid]
[8]
  inhibition of β-lyase (in words): inhibitor of the β-lyase
[6]
  inhibition of cystsine lyase (in words): most inhibitory derivative tested

## Nc1ccccc1C(=O)O [anthranilic acid]
[2]
  inhibition of kynureninase (in words): inhibit the enzyme
[9]
  inhibition of bacterial kynureninase (in words): inhibitors

B1: Kynureninase (Pseudomonas fluorescens) (protein)
chain: MTTRNDCLALDAQDSLAPLRQQFALPEGVIYLDGNSLGARPVAALARAQAVIAEEWGNGLIRSWNSAGWRDLSERLGNRLATLIGARDGEVVVTDTTSINLFKVLSAALRVQATRSPERRVIVTETSNFPTDLYIAEGLADMLQQGYTLRLVDSPEELPQAIDQDTAVVMLTHVNYKTGYMHDMQALTALSHECGALAIWDLAHSAGAVPVDLHQAGADYAIGCTYKYLNGGPGSQAFVWVSPQLCDLVPQPLSGWFGHSRQFAMEPRYEPSNGIARYLCGTQPITSLAMVECGLDVFAQTDMASLRRKSLALTDLFIELVEQRCAAHELTLVTPREHAKRGSHVSFEHPEGYAVIQALIDRGVIGDYREPRIMRFGFTPLYTTFTEVWDAVQILGEILDRKTWAQAQFQVRHSVT
notes: Bacterial kynureninase was prepared from cells of Pseudomonas fluorescens; endogenous in cells; partially purified by DEAE-cellulose and ammonium sulfate
[10]
  Km: 25 µM
